The source of these data is US10883087B2, “Uricase sequences and methods of treatment” (MedImmune, LLC, priority 2015, dated 2021).

Common to all, as to test: Substrate depletion assay (UA)
The subject of series [1] is O=c1[nH]c(=O)c2[nH]c(=O)[nH]c2[nH]1. It is filed as biochemical, Deinococcus geothermalis. The settings on record: other: PB, pH 7.4, typically 30° C., UA 23.8-400 μM, 292 nm.
For series [2], the target named is T1, Arthrobacter globiformis uricase, wt, SEQ ID NO: 27 (amino terminal His tag) (Arthrobacter globiformis, UniProt D0VWQ1).
T1 sequence (D0VWQ1 1-302): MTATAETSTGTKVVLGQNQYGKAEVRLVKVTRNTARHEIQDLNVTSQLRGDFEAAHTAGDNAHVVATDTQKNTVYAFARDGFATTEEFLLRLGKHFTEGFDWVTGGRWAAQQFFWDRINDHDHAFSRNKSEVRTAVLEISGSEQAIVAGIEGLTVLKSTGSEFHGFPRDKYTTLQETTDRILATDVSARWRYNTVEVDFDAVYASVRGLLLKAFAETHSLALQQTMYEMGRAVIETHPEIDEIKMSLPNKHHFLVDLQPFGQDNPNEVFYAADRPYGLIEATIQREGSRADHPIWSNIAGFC
It is filed as biochemical. As for the experimental part: (§1) An initial screening paradigm was used to identify candidates for further optimization. The 8 uricase sequences described in Example 1 were cloned with an amino terminal His tag and expressed in E. coli. Each uricase construct was evaluated for expression level and in particular, soluble expression. Uricase expressing E. coli were lysed and soluble material was separated from insoluble (pellet) material. The lysates were separated by SDS-PAGE and the proteins were visualized by Coomassie blue staining. […] The pig-baboon chimera appears to express almost entirely in the pellet (P) (insoluble) fraction (FIG. 1, Lane 9). Cytosolic soluble (S) expression was considered a favorable property. […] Protein yield was determined by measuring the absorbance at 280 nm. […]
(§2) Five uricases (SEQ ID NOs: 27, 28, 29, 32, and 34) were evaluated for neutral pH solubility characteristics and activity in terms of product formation (H2O2) at pH 9.0 and 7.4. […] The appearance of hydrogen peroxide can be measured by an increase in absorbance at 540 nm. […]
(§3) Substrate depletion (UA) is another common method for assessing uricase activity. […] The Molecular Devices reader temperature was set to the 30° C. Absorbance measurements at 292 nm were captured every 20 seconds for a period of 10 minutes. The rate of UA degradation was calculated by SoftMax Pro software. Vmax and Km were calculated for these uricases (see Table 5 below). […]

Series [3] relates to Krystexxa (pegloticase), PEGylated chimeric pig/baboon uricase. It is filed as biochemical, pig and baboon (chimera). The settings on record: PB, pH 7.4, typically 30° C.; UA 23.8-400 μM; 292 nm. As for the experimental part: Five uricases (SEQ ID NOs: 27, 28, 29, 32, and 34) were evaluated for neutral pH solubility characteristics and activity in terms of product formation (H2O2) at pH 9.0 and 7.4. In the product formation assay, allantoin formation is proportional to H2O2 formation, which is linked to colorimetric horseradish peroxidase-catalyzed, colorimetric reaction. The appearance of hydrogen peroxide can be measured by an increase in absorbance at 540 nm. Product formation assays were proportional to substrate depletion assays in terms of uricase activity. […] The substrate depletion assays were much better for assessing kinetic parameters like Vmax and Km.
Substrate depletion (UA) is another common method for assessing uricase activity. In the substrate depletion assay, uricase, UA, and phosphate buffer were incubated for 1 hour at the stated temperature (typically 30° C.). Uricase was then diluted to 1 μg/mL and combined with a curve of UA (400 μM diluted down 1:1.6 to 23.8 μM) in 0.1M phosphate buffer (PB), pH 7.4. In some assays 1 mM DTT was added to the assay. The Molecular Devices reader temperature was set to the 30° C. Absorbance measurements at 292 nm were captured every 20 seconds for a period of 10 minutes. The rate of UA degradation was calculated by SoftMax Pro software. Vmax and Km were calculated for these uricases (see Table 5 below). […]

The target of series [4] is Deinococcus geothermalis uricase, SEQ ID NO: 28 (amino terminal His tag) (Deinococcus geothermalis, UniProt Q1J399). It is filed as biochemical.
The test system of series [5] is Consensus uricase, SEQ ID NO: 34 (amino terminal His tag). It is filed as biochemical. The settings on record: PB, pH 7.4, typically 30° C.; UA 23.8-400 μM; 292 nm.
From the text: After this process, the following 7 candidate sequences were chosen for further investigation: Arthrobacter globiformis uricase (SEQ ID NO: 27), Deinococcus geothermalis uricase (SEQ ID NO: 28), Deinococcus radiodurans uricase (SEQ ID NO: 29), Granulicella tundricola uricase (SEQ ID NO: 30), Solibacter usitatus uricase (SEQ ID NO: 31), Terriglobus saanensis uricase (SEQ ID NO: 32) and Kyrpidia tusciae uricase (SEQ ID NO: 33). Additionally, as an 8th sequence, a consensus uricase sequence was also devised from the alignment of many uricase sequences. The consensus sequence is represented by SEQ ID NO: 34.
An initial screening paradigm was used to identify candidates for further optimization. […] Each uricase construct was evaluated for expression level and in particular, soluble expression. […] Protein yield was determined by measuring the absorbance at 280 nm. […]
as §2
Substrate depletion (UA) is another common method for assessing uricase activity. […] The Molecular Devices reader temperature was set to the 30° C. Absorbance measurements at 292 nm were captured every 20 seconds for a period of 10 minutes. […]

Substrate in series [6]: O=c1[nH]c(=O)c2[nH]c(=O)[nH]c2[nH]1
It is filed as biochemical, Terriglobus saanensis. The settings on record: other: PB, pH 7.4, typically 30° C., UA 23.8-400 μM, 292 nm. As for the experimental part:
as §1, §2, §3

Substrate in series [7]: O=c1[nH]c(=O)c2[nH]c(=O)[nH]c2[nH]1
It is filed as biochemical, Arthrobacter globiformis. The method, then:
as §1, §2, §3

Substrate in series [8]: O=c1[nH]c(=O)c2[nH]c(=O)[nH]c2[nH]1
It is filed as biochemical, Deinococcus radiodurans. As to conditions: other: PB, pH 7.4, typically 30° C., UA 23.8-400 μM, 292 nm. As for the experimental part:
as §1, §2, §3

Consider “Deinococcus geothermalis uricase, SEQ ID NO: 28 (amino terminal His tag) (Deinococcus geothermalis DSM 11300)”, for which, in series [1], the Km (in general, the substrate concentration at which the rate is half of its maximum) is 55.7 µM.
As for `O=c1[nH]c(=O)c2[nH]c(=O)[nH]c2[nH]1` [UA, uric acid], the “better kcat/Km relative to Krystexxa” value in series [2] (ratio to Krystexxa) and in series [4] (ratio to Krystexxa) was about 2 fold throughout. Further, the “better Km relative to Krystexxa” value in series [2] (ratio to Krystexxa (55.7 versus 116.3)) worked out at 2 fold. Besides, the Km came out at 116 µM in series [3] and 31.8 µM in series [5]. The Vmax in series [3] is recorded as 5.7; in series [4] (compared with Krystexxa) it was 10.8. Further, the “improved Vmax relative to Krystexxa” value in series [4] (ratio to Krystexxa (10.8 versus 5.7)) amounted to 2 fold.

B1: Terriglobus saanensis uricase, SEQ ID NO: 32 (amino terminal His tag) (Terriglobus saanensis SP1PR4) (protein)
chain: MAKLIDSRYGKARVRVMKLDRSQPQHQLLEWTVRVLLEGDFETAHTVGDNSNILPTDTMKNTVYSRAKESKAETPEEFAIELAEFLLGRNPQVHTVEVKIETAMWKRLVVDGKPHGSSFMRGSDELGTVLHHATRETKTMVCGVENMVILKSQNSSFEGYIQDDLTTLKPTADRLFATAMTADWDYTDGGSAFAARREAIREAMLKAFAEHDSKSVQQTLYAMAEAAMAAVPAVNRVHMVMPNKHCLLVDLKHFGQENNNEIFVPTEDPHGYIEATVVRE
Turning to B1, in series [6], the Km amounted to 76.2 µM.

B2: Arthrobacter globiformis uricase, wt, SEQ ID NO: 27 (amino terminal His tag) (Arthrobacter globiformis) (protein)
chain: T1 sequence (D0VWQ1 1-302)
For B2, the Km turned out to be 110 µM in series [7] (other: PB, pH 7.4, typically 30° C., UA 23.8-400 μM, 292 nm, pH 7.4) and 55.7 µM in series [7] (other: restated in text, compared with Krystexxa, 30.0 °C).

B3: Deinococcus radiodurans uricase, SEQ ID NO: 29 (amino terminal His tag) (Deinococcus radiodurans R1 = ATCC 13939 = DSM 20539) (protein)
chain: MMTGTQQPGTQPKVKVRLGENNYGKAEVQLMKIKRGTPRHELREAKVRVAMYGDFGAAHSEGDNTDLVATDTVRNTVYGLAKEGFESSIEEFGKELLTHFVKVGPRVTGGFAEFTEHLWERVQTPAQPQGHDHAFVRQMPKRTARVETQDGRRFTVTSGIEELYVLKTTESGWENYLLDERFTTLPETHDRVMATFVTAKWEYAVESCDYDAVWERVYRQIQHTFTDHYSPSLQRTLYLMGEAVLSVCPEISRIWFQMPNKHHLVYNLGRFGLENNNEILHVDPEPYGLMEAWVERAE
Turning to B3, the Km in series [8] was 83.1 µM.
